Measured values: patent publication US9474701B2, “Antimicrobial soaps containing carvacrol and methods of using same” (Hydromer, Inc., priority 2014, dated 2016)

Experiments:
[1] = test system: gram negative/gram positive bacteria; test: Synergistic effect of soap ingredients with/without Carvacrol; assay type: cell-based; conditions: for Efficacy against gram negative/gram positive bacteria: bacterial growth inhibition, ingredients with/without Carvacrol; for Synergistic effect: synergism with the Carvacrol
Description: Main ingredients of NMP free V100, (2-Phenoxyethanol, Caprylyl glycol and Hexylene Glycol) were analyzed with/without Carvacrol.

[2] = test system: gram negative/gram positive bacteria; test: Synergistic effect of soap ingredients with/without Oregano Oil; assay type: cell-based; conditions: for Efficacy against gram negative/gram positive bacteria: inhibition, ingredients with/without Oregano Oil; for Synergistic effect: synergism with Oregano Oil
Description: Main ingredients of NMP free V100, 2-Phenoxyethanol, Caprylyl glycol and Hexylene Glycol were analyzed in the concentrations that they appear in the Hydromer Antiseptic Soap with/without Oregano Oil.

Row | Compound | Efficacy against gram negative/gram positive bacteria [1] | Synergistic effect [1] | Efficacy against gram negative/gram positive bacteria [2] | Synergistic effect [2]
1 | CCCCCCC(O)CO (centres unmarked) [0.02% Caprylyl Glycol, Caprylyl Glycol] | NO Inhibition | act synergistically | NO Inhibition | act synergistically
2 | Cc1ccc(C(C)C)cc1O [0.2% Carvacrol, Carvacrol] | NO Inhibition |  |  | 
3 | OCCOc1ccccc1 [0.035% 2-Phenoxyethanol, 2-Phenoxyethanol] | NO Inhibition | act synergistically | NO Inhibition | act synergistically
4 | Hexylene Glycol [0.008% Hexylene Glycol] | NO Inhibition |  | NO Inhibition | 
